Measurements from paper PMC6136712, “Ex vivo drug sensitivity testing as a means for drug repurposing in esophageal adenocarcinoma” (PLoS ONE, 2018).
Structures can show the parent of a compound that is named as a salt. Where two headings read alike, the source gives them in different places.

Key:
Format in all cases: cell-based, human
OE33 cells [1] = assay: Epigenetic compound library screen (CellTiter-Glo, 72 h); settings: OE33, 6μM; for cytotoxicity at 6 µM: Homo sapiens, read-out: % cell killing /control
Method: (§1) We tested a 163 compound epigenetic library that consists of inhibitors and activators of epigenetic modifying enzymes (writers, erasers and readers). All compounds were dissolved in 100% DMSO and tested in duplicate at a nominal test concentration of 6μM. Wells with assay buffer containing DMSO served as negative controls. 1000 exponentially growing cells were seeded per well in 384-well micro-titer plates and incubated in the presence of compounds in a humidified environment at 37°C and 5% CO2. After 72 hours of treatment, cell viability was assessed by measuring ATP levels via bioluminescence (CellTiter-Glo, Promega). […] Curve fitting and statistical analyses are performed in GraphPad prism.

EAC47 cells [2] = assay: as above; settings: EAC47, 6μM; for cytotoxicity at 6 µM: Homo sapiens, read-out: % cell killing /control; for cytotoxicity at 6 µM / % cell killing /control: 72 h
Method: as §1

Flo-1 cells [3] = assay: as above; settings: Flo-1, 6μM; for cytotoxicity at 6 µM: Homo sapiens, read-out: % cell killing /control
Method: as §1

[4] = system: normal esophageal epithelium cell line EACN42; assay: FDA library drug sensitivity testing (CellTiter-Glo, 72 h), normal control cells; set-up: key to DSS: modified drug sensitivity score (DSSmod) from dose-response curve fit; settings: 72 h, EACN42 normal esophageal cells; for EC50: cell viability (ATP), max test concentration 10μM; for DSS: drug sensitivity score
How it was run: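 HPV E6-E7-immortalized normal human esophageal epithelial cells, 1000 per well, exposed 72 h at 37 °C to drugs in duplicate from 10μM top concentration across a 20,000-fold range. Viability by ATP bioluminescence; DMSO wells as negative control; curves scored with modified drug sensitivity score (DSSmod).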

OE33 cells [5] = assay: FDA library drug sensitivity testing (CellTiter-Glo, 72 h)
Description: (§2) OE33, OE19 and SKGT2 human esophageal adenocarcinoma cell lines were obtained from the European Collection of Cell Culture ([…]). Flo1, EAC42 and EAC47 cells were established in the Capobianco Laboratory. EAC42 and EAC47 human esophageal adenocarcinoma cell lines are derived from patients undergoing surgery at the Miller School of Medicine, University of Miami. The Capobianco laboratory obtained written informed consent from all patients and approval from the Institutional Research Ethics Committee.
(§3) Drug sensitivity testing (DST) was performed as described previously. […] Individual drugs were dissolved in 100% DMSO and tested in duplicates starting at a maximal test concentration of 10μM then over a 20,000-fold concentration range to generate dose response curves. Wells with assay buffer containing DMSO served as negative controls. 1000 exponentially growing cells were seeded per well in 384-well micro-titer plates and incubated in the presence of compounds in a humidified environment at 37°C and 5% CO2. After 72 hours of treatment, cell viability was assessed by measuring ATP levels via bioluminescence (CellTiter-Glo, Promega) according to manufactures recommendations. Interpretation of curve parameters was performed according to the modified drug sensitivity scoring (DSSmod) function developed by Swords et al. […] Given in this way, the sDSSmod incorporated information on each drug’s potency, efficacy, effect range and therapeutic index, making it possible to prioritize compounds over multiple parameters using a single numerical metric. […] All calculations and scoring routines are implemented in MatLab and additional curve fitting and statistical analyses are performed in GraphPad prism.

EAC42 cells = assay: as above
Description: as §2, §3

SK-GT2 cells = assay: as above
Description: as §2, §3

OE19 cells = assay: as above; settings: sDSSmod = DSSmod (patient cells) - DSSmod (normal cells)
Description: as §2, §3

EAC47 cells [6] = assay: as above
Description: as §2, §3

Flo-1 cells [7] = assay: as above
Description: as §2
Drug sensitivity testing (DST) was performed as described previously. […] Individual drugs were dissolved in 100% DMSO and tested in duplicates starting at a maximal test concentration of 10μM then over a 20,000-fold concentration range to generate dose response curves. Wells with assay buffer containing DMSO served as negative controls. 1000 exponentially growing cells were seeded per well in 384-well micro-titer plates and incubated in the presence of compounds in a humidified environment at 37°C and 5% CO2. After 72 hours of treatment, cell viability was assessed by measuring ATP levels via bioluminescence (CellTiter-Glo, Promega) according to manufactures recommendations. Interpretation of curve parameters was performed according to the modified drug sensitivity scoring (DSSmod) function developed by Swords et al. As a final step, the selective DSSmod (sDSSmod) for each drug in each patient screen is calculated according to the formula sDSSmod = DSSmod (patient cells)—DSSmod (normal cells). Given in this way, the sDSSmod incorporated information on each drug’s potency, efficacy, effect range and therapeutic index, making it possible to prioritize compounds over multiple parameters using a single numerical metric. In addition, this methodology allows us to rank compounds by cancer-selective efficacy for each individual patient. […] All calculations and scoring routines are implemented in MatLab and additional curve fitting and statistical analyses are performed in GraphPad prism.

[8] = OE33, sDSSmod = DSSmod (patient cells) - DSSmod (normal cells)
[9] = EAC42, sDSSmod = DSSmod (patient cells) - DSSmod (normal cells)
[10] = SK-GT2, sDSSmod = DSSmod (patient cells) - DSSmod (normal cells)
[11] = EAC47, sDSSmod = DSSmod (patient cells) - DSSmod (normal cells)
[12] = Flo-1, sDSSmod = DSSmod (patient cells) - DSSmod (normal cells)

Row | Molecule | EC50 ([4]; Homo sapiens) | DSS [4] | sDSSmod (EAC42 cells; [9]) | sDSSmod (SK-GT2 cells; [10]) | sDSSmod (OE19 cells) | sDSSmod (EAC47 cells [6]; [11]) | sDSSmod (Flo-1 cells [7]; [12]) | other results
1 | Nc1nc(=O)n([C@H]2C[C@H](O)[C@@H](CO)O2)cc1F [2'-Deoxy-5-fluorocytidine] | – | – | – | – | – | – | – | cytotoxicity at 6 µM (OE33 cells [1]): 65.2%; cytotoxicity at 6 µM (EAC47 cells [2]): 86.8%
2 | Nc1ncnc2c1c(I)cn2[C@@H]1O[C@H](CO)[C@@H](O)[C@H]1O [5-Iodotubercidin] | – | – | – | – | – | – | – | % cell killing /control (Flo-1 cells [3]): 50.40%
3 | CC(C)[C@H](C(=O)Nc1ccc(C(=O)NO)cc1)c1ccccc1 [(S)-HDAC-42] | – | – | – | – | – | – | – | cytotoxicity at 6 µM (OE33 cells [1]): 89.3%; cytotoxicity at 6 µM (Flo-1 cells [3]): 84.6%; cytotoxicity at 6 µM (EAC47 cells [2]): 76.5%
4 | CC[C@@H]1C(=O)N(C)c2cnc(Nc3ccc(C(=O)NC4CCN(C)CC4)cc3OC)nc2N1C1CCCC1 [BI-2536] | – | – | – | – | – | – | – | cytotoxicity at 6 µM (OE33 cells [1]): 77.6%; cytotoxicity at 6 µM (Flo-1 cells [3]): 95.9%; cytotoxicity at 6 µM (EAC47 cells [2]): 39.5%
5 | O=C(/C=C/c1cccc(S(=O)(=O)Nc2ccccc2)c1)NO [Belinostat] | 1080 nM | 19 | 10.9 | -19.002 | -19.002 | 6.846 | -19 | sDSSmod (OE33 cells [5]; [8]): -19.002
6 | CC(C)C[C@H](NC(=O)[C@H](Cc1ccccc1)NC(=O)c1cnccn1)B(O)O [Bortezomib] | 200 nM | 35.58 | -21.0264 | -35.5649 | -35.5757 | -23.5292 | -35.57 | sDSSmod (OE33 cells [5]; [8]): -35.5757
7 | O=C(/C=C/c1cccc(C(=O)NO)c1)NO [CBHA] | – | – | – | – | – | – | – | % cell killing /control (EAC47 cells [2]): 20.30%
8 | Cc1sc2c(c1C)C(c1ccc(Cl)cc1)=N[C@@H](CC(N)=O)c1nnc(C)n1-2 [CPI203] | – | – | – | – | – | – | – | % cell killing /control (Flo-1 cells [3]): 48.79%; sensitivity in words (EAC47 cells [2]): sensitivity; % cell killing /control (EAC47 cells [2]): 43.29%
9 | COc1ccc(-c2nc(N3CCOCC3)c3sc(CN(C)c4ncc(C(=O)NO)cn4)cc3n2)cn1 [CUDC-907] | – | – | – | – | – | – | – | cytotoxicity at 6 µM (OE33 cells [1]): 99.4%; cytotoxicity at 6 µM (Flo-1 cells [3]): 99.7%; cytotoxicity at 6 µM (EAC47 cells [2]): 115%
10 | CC[C@@]1(O)C(=O)OCc2c1cc1n(c2=O)Cc2cc3ccccc3nc2-1 [Camptothecin] | 20 nM | 52.69 | -13.5945 | -11.3049 | -34.9341 | -15.9763 | -20.76 | –
11 | Cc1nc(Nc2ncc(C(=O)Nc3c(C)cccc3Cl)s2)cc(N2CCN(CCO)CC2)n1 [Dasatinib] | 80 nM | 12.81 | -9.752 | -12.8072 | -12.8072 | -10.2728 | -12.8 | sDSSmod (OE33 cells [5]; [8]): -12.8072
12 | CCN(CC)C(=S)SSC(=S)N(CC)CC [Disulfiram] | – | 0 | 7.112 | 10.36 | – | – | – | cytotoxicity at 6 µM (EAC47 cells [2]): 33.9%
13 | Nc1nc(F)nc2c1ncn2[C@@H]1O[C@H](COP(=O)(O)O)[C@@H](O)[C@@H]1O [Fludara] | 50 nM | 46.34 | -46.3431 | -12.9068 | -23.9486 | -46.3431 | -5.23 | sDSSmod (OE33 cells [5]; [8]): -12.9868
14 | CC(C)n1c(/C=C/C(O)CC(O)CC(=O)O)c(-c2ccc(F)cc2)c2ccccc21 (stereo not drawn) [Fluvastatin sodium] | 1060 nM | 17.36 | -14.3727 | -17.1525 | -16.7184 | -15.1417 | -9.71 | sDSSmod (OE33 cells [5]; [8]): -10.5948
15 | Cc1cc(C)cc(C(=O)NOCCCCCC(=O)NO)c1 [LMK 235] | – | – | – | – | – | – | – | % cell killing /control (OE33 cells [1]): 80.31%; % cell killing /control (EAC47 cells [2]): 62.72%
16 | CN(C)c1ccc(C(=O)NCCCCCCC(=O)NO)cc1 [M-344] | – | – | – | – | – | – | – | % cell killing /control (OE33 cells [1]): 68.75%; % cell killing /control (Flo-1 cells [3]): 56.82%
17 | O=Nc1ccc(O)c2ncccc12 [NSC-3852] | – | – | – | – | – | – | – | % cell killing /control (OE33 cells [1]): 42.71%
18 | CN(C)Cc1c(C(=O)NCCOc2ccc(C(=O)NO)cc2)oc2ccccc12 [PCI-24781 (Abexinostat), Abexinostat] | – | – | – | – | – | – | – | cytotoxicity at 6 µM (OE33 cells [1]): 46%
19 | O=C(/C=C/c1cccc(S(=O)(=O)Nc2ccccc2)c1)NO [PXD101] | – | – | – | – | – | – | – | cytotoxicity at 6 µM (OE33 cells [1]): 92.3%; cytotoxicity at 6 µM (Flo-1 cells [3]): 77.6%
20 | CO[C@H]1C[C@@H]2CC[C@@H](C)[C@@](O)(O2)C(=O)C(=O)N2CCCC[C@H]2C(=O)O[C@H]([C@H](C)C[C@@H]2CC[C@@H](O)[C@H](OC)C2)CC(=O)[C@H](C)/C=C(\C)[C@@H](O)[C@@H](OC)C(=O)[C@H](C)C[C@H](C)/C=C/C=C/C=C/1C [Rapamycin] | 3000 nM | 11.01 | -6.15 | -11.012 | -11.012 | -8.931 | -10.72 | sDSSmod (OE33 cells [5]; [8]): -11.012
21 | O=C(CCCCCCC(=O)Nc1ccccc1)NO [SAHA] | – | – | – | – | – | – | – | % cell killing /control (Flo-1 cells [3]): 46.32%
22 | CCCCc1nc2cc(/C=C/C(=O)NO)ccc2n1CCN(CC)CC [SB 939] | – | – | – | – | – | – | – | cytotoxicity at 6 µM (OE33 cells [1]): 98.9%; cytotoxicity at 6 µM (Flo-1 cells [3]): 78.8%
23 | O=C(CCCCCN1C(=O)c2cccc3cccc(c23)C1=O)NO [Scriptaid] | – | – | – | – | – | – | – | cytotoxicity at 6 µM (Flo-1 cells [3]): 32.5%
24 | CO[C@H]1C[C@@H]2CC[C@@H](C)[C@@](O)(O2)C(=O)C(=O)N2CCCC[C@H]2C(=O)O[C@H]([C@H](C)C[C@@H]2CC[C@@H](OC(=O)C(C)(CO)CO)[C@H](OC)C2)CC(=O)[C@H](C)/C=C(\C)[C@@H](O)[C@@H](OC)C(=O)[C@H](C)C[C@H](C)/C=C/C=C/C=C/1C [Temsirolimus] | > 10000 nM | 11.93 | -5.1083 | -11.9329 | -11.9329 | -9.994 | -11.93 | sDSSmod (OE33 cells [5]; [8]): -11.9329
25 | CC[C@@]1(O)C(=O)OCc2c1cc1n(c2=O)Cc2cc3c(CN(C)C)c(O)ccc3nc2-1 [Topotecan HCl] | 60 nM | 43.21 | -9.367 | -13.0332 | -36.6414 | -11.6273 | -20.26 | –
26 | O=C(CCCCCCC(=O)Nc1ccccc1)NO [Vorinostat] | – | 5.09 | 7.485 | – | 9.843 | 5.288 | 9.58 | sDSSmod (OE33 cells [5]; [8]): 15.71
27 | CC1(C)CCC2=C(O1)c1ccccc1C(=O)C2=O [β-Lapachone] | – | – | – | – | – | – | – | cytotoxicity at 6 µM (Flo-1 cells [3]): 40.9%
28 | Bleomycin sulfate | – | 30.58 | – | – | -18.9933 | – | – | EC50 [4]: 370 nM; sDSSmod (OE33 cells [5]): -15.1946; sDSSmod (EAC42 cells): -29.1318; sDSSmod (SK-GT2 cells): -29.9671; sDSSmod (EAC47 cells [6]): -29.4923; sDSSmod (Flo-1 cells [7]): -18.12
